Data: article PMC4229098, “Alzheimer's Therapeutics Targeting Amyloid Beta 1–42 Oligomers I: Abeta 42 Oligomer Binding to Specific Neuronal Receptors Is Displaced by Drug Candidates That Improve Cognitive Deficits” (PLoS ONE, 2014)
Where “and” joins values, the source holds several entries; their conditions need not be identical. Identical values can stand only once. Like-named read-outs stand apart in the source and are kept apart here.

Key:
[1] = system: mature primary hippocampal and cortical cultures; assay: Membrane trafficking assay (MTT formazan exocytosis); format: cell-based, rat; details: for EC50: preparation dosed alone, read-out: EC50 of Abeta preparation;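 for all read-outs here: mixed neuron and glia cultures from E18 Sprague-Dawley rat embryos, grown 3 weeks in 384-well plates, labeled vesicles quantified by imaging or spectrophotometry as percent of vehicle-treated wells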
Protocol: Vesicular trafficking was measured using an adaptation of a method by Liu and Schubert [51]. […] Tetrazolium salts (3-(4,5-dimethylthiazol-2yl)-2,5diphenyl tetrazolium bromide, Roche Molecular Biochemicals) were added to a final concentration of 0.75 mM and incubated at 37°C for 60–90 min. Vesicular formazan remaining in cells was quantified by absorbance spectrometry (590 nm with 690 nm subtracted) following extraction with 1.6% Tween-20. All compounds were tested in quadruplicate wells for each concentration in at least 8 replicate experiments with data from all experiments pooled for analysis with means ± S.E.M.
The amount of labeled vesicles in treated cells is quantified by automated image processing or by spectrophotometry following extraction from cells and is calculated as a percentage of vehicle-treated values. Control wells consist of Abeta and vehicle treatment without test compounds. […] In the prevention configuration of this assay, compounds are added to neuronal cultures first, followed by oligomers. Compounds are also tested in the treatment configuration of this assay in which oligomers are added to the cultures first, followed by compound addition.

[2] = system: neuronal synaptic puncta in hippocampal/cortical cultures; assay: Abeta binding assay, neurons (immunofluorescence of neurite puncta); set-up: species or system rat
Protocol: Alternatively, displacement of prebound oligomers was evaluated by adding oligomers 60 min prior to the addition of compounds, followed by additional 30 minutes incubation. Cells were fixed with 3.75% formaldehyde for 15 min, blocked with 5% normal goat serum and 0.5% Triton X-100 and incubated with primary antibodies for Abeta (1 µg/ml 6E10 or 4G8, Covance catalog numbers SIG-39320 and SIG-39330, respectively), MAP-2 (0.2 µg/ml Chemicon), Synaptophysin-1 (1 µg/ml, Anaspec), glial fibrillary acidic protein (GFAP, 1 µg/ml, Thermo-Fisher) and fluorescently labeled secondary antibodies (2 µg/ml, Invitrogen). Images were acquired on a Cellomics VTi automated microscope with a 20X, 0.75 NA objective and analyzed using ThermoFisher/Cellomics Neuronal Profiling bioapplication set to measure punctate labeling of Abeta and synaptophysin-1 along MAP-2 labeled neurites. For each replicate experiment, at least 100 neurons were sampled from 4 replicate wells for each experimental condition (400 to 500 neurons per experimental condition). […] All data presented for Abeta binding to neurons represents total intensity of Abeta label in neurite spots per neuron, in relative fluorescent units (RFU), unless otherwise indicated.

glia = assay: Abeta binding assay, glia cell bodies; set-up: species or system rat
Protocol: Measurements of Abeta binding to glia were made with a separate algorithm (ThermoFisher/Cellomics Target Activation bioapplication) which identifies cells lacking MAP2 labeling. Glial cells were analyzed after separating them based on their nuclear morphology as determined by the characteristics of their DAPI labeling, as described in Fig. S1. […]
The morphology of MAP-2 negative glial nuclei labeled with DAPI was analyzed via automated image processing. […]

[3] = system: synaptophysin-immunopositive puncta along MAP2-labeled neurites; assay: Synapse counting assay; format: cell-based, rat; details: synthetic Abeta oligomers vs vehicle, 24 hrs
Protocol: Sprague-Dawley rats, 18 days pregnant, were euthanized by CO2 asphyxiation followed by cervical dislocation, and embryos were removed. Hippocampus and cortical tissue from the embryo brains were digested in 2.5% Trypsin (Life Technologies) to dissociate cells. Isolated cells were plated at a density of 4.6×10^4 cells per cm^2 in 384-well poly-D Lysine coated plates (Greiner) in Neurobasal Media (Life Technologies) supplemented with B27 (Life Technologies), Glutamax (Life Technologies) and antibiotics (penicillin, 50 units/ml and streptomycin 50 µg/ml, Life Technologies). Cultures were maintained at 37°C in 5% CO2 with weekly media change for 3 weeks prior to experimentation. These mixed cultures of hippocampal plus cortical neurons and glia were used for all of the in vitro experiments described.
Cultures were treated with compounds for 60 minutes prior to addition of 6 µM (maximum from trafficking dose-response curve) of synthetic Abeta 1–42 oligomers and incubated for 24 hrs. Cultures were fixed and immunofluorescently labeled and imaged as for the Abeta binding assay. The ThermoFisher/Cellomics Neuronal Profiling bioapplication was used to count synaptophysin-immunopositive puncta along MAP2-labeled neurites. The number of puncta per unit length of neurites was used to determine effects of treatments. To attain statistical power of 80% and a p value of less than 0.05 (determined using G*Power software), twenty replicate wells were treated per experiment plate and compared to control wells on the same plate and experiments were repeated four times.

[4] = system: C57/BL6 mice injected with Abeta oligomers; assay: Contextual fear conditioning after intrahippocampal Abeta oligomer injection; format: in vivo; details: injected into dorsal hippocampi 24 hours prior to testing
Description: All procedures were approved by the Institutional Animal Care and Use and Committee at Columbia University and Stanford University and were in compliance with the Office of Laboratory Animal Welfare and the Guide for the Care and Use of Laboratory Animals, Eighth Edition. Behavioral testing of wild-type, 3–4 month old, male, C57/BL6 mice, injected bilaterally into their hippocampus with Abeta oligomers and testing in the fear conditioning task was done according to published methods. Animals were anesthetized with […] Avertin prior to implantation of cannulas into the hippocampus. Testing of transgenic hAPP Swedish/London mice in the Morris water maze or fear conditioning tasks was done according to published methods, [38]. To measure brain concentration of drugs, brains were homogenized in 1 ml PBS per gram of brain tissue using a handheld homogenizer. Brain homogenate was then extracted with three volumes of ice cold methanol on ice for 15 minutes and centrifuged for 15 min. The supernates were analyzed by LC/MS/MS. Samples were compared to a calibration curve prepared in a similar manner by spiking blank control homogenate with standards prepared in DMSO and then extracted as above. At the end of all behavioral testing, animals were euthanized with CO2 followed by cervical dislocation.

[5] = system: hippocampal/cortical cultures; assay: Internalization of Abeta oligomers (immunolabeling with/without detergent); format: cell-based, rat; details: for bound Abeta at the surface: 1 µM
Protocol: Supplementary file pone.0111898.s002.tif: Figure S2 Internalization of Abeta oligomers. After treatment with Abeta oligomers (1 µM) for 1 hr (A, B) or 2 hr (C, D), cultures were fixed and immunolabeled for Abeta either in the presence of 0.05% Triton X-100 to permeabilize cells to immunoglobulins and measure all Abeta present (A, C) or in the absence of this detergent (B, D) to detect only Abeta bound at the cell surface. […] (TIF) Click here for additional data file.

[6] = listed as synthetic Abeta oligomers

## synthetic oligomers (high concentration): synthetic human Abeta 1–42 oligomerized at 100 µM, 4°C, 24 hr; contains monomer [reference compound]
[1]; Abeta preparation dosed alone
  Treatment duration for maximum response: 24 h
[1]; [6]
  EC50: 462 ± 56 nM
[1]
  EC50: 460 nM
[2]; 440 nM total Abeta, 60 minutes
  bound puncta colocalizing with synaptophysin presynaptic terminals: 37%±3%
[2]; 60 min treatment, read-out: Kd Site 1 (high affinity), neurons synaptic puncta
  Kd: 518 nM
glia; non-saturable site, read-out: Kd Site 2, glia cell bodies with condensed/asymmetric nuclear morphology
  Kd: > 1000 µM
glia; read-out: Kd Site 1 (high affinity), glia cell bodies with condensed/asymmetric nuclear morphology
  Kd: 0.289 µM
[3]; listed as Oligomers
  loss of synaptophysin-immunoreactive puncta: 18%±2
[3]; [6]
  loss of synaptophysin-immunoreactive puncta: 18%
[4]
  effect of Abeta oligomers on contextual fear memory: cause a deficit in contextual fear conditioning-dependent associative memory
[5]; 1 hr exposure
  bound Abeta at the surface: 96%±8%
[5]; 2 hr exposure, listed as Abeta oligomers
  bound Abeta internalized: 27%±8% and 27±8%
[5]; 2 hrs exposure
  bound Abeta at the surface: 73%±3%
